Experimental findings from patent publication US20240368169A1 (priority 2021, published 2024) are described below.

Test [1] deals with recombinant poly(ADP-ribose) polymerase 1 (PARP1) (Homo sapiens, UniProt P09874). The test can be described thus: biochemical. The following applies: inhibition of PARP1 enzyme activity, chemiluminescence.
Test [2] has as its target recombinant poly(ADP-ribose) polymerase 2 (PARP2) (Homo sapiens, UniProt Q9UGN5). The test can be described thus: biochemical. The settings on record: inhibition of PARP2 enzyme activity, chemiluminescence.
The next test has as its system MDA-MB-436 cells. The test can be described thus: Growth inhibition assay against BRCA mutant human breast cancer MDA-MB-436 cell line (CCK-8, 7 days). It is filed as cell-based.

One may read the IC50 as the concentration at which inhibition is half-maximal.

Sequence of recombinant poly(ADP-ribose) polymerase 1 (PARP1) (P09874 whole entry): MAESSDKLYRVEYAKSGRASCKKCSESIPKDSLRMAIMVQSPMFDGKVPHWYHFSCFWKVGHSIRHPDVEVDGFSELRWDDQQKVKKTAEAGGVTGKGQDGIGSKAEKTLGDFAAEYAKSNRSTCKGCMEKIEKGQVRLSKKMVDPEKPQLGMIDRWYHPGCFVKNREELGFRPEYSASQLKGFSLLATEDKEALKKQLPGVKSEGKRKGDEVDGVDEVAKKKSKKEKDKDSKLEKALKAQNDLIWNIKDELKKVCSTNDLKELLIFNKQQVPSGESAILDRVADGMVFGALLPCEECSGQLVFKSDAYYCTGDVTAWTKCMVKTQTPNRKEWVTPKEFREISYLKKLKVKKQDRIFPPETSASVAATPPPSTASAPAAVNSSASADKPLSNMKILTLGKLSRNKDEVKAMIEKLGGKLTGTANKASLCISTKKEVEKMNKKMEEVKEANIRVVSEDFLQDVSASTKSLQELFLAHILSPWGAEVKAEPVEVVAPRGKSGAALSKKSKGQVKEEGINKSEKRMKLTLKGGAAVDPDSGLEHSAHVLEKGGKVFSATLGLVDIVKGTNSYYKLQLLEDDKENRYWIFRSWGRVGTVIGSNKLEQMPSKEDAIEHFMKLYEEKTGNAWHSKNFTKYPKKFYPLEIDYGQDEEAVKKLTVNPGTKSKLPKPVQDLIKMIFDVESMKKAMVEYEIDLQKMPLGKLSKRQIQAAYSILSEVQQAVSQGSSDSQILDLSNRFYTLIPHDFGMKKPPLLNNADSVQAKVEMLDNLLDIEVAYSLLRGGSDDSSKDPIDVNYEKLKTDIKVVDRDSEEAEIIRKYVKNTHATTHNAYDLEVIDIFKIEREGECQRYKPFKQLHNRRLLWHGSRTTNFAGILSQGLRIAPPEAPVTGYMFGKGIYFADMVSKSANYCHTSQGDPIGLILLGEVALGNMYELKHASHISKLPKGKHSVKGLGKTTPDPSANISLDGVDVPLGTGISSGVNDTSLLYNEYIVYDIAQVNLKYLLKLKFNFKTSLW
Sequence of recombinant poly(ADP-ribose) polymerase 2 (PARP2) (Q9UGN5 whole entry): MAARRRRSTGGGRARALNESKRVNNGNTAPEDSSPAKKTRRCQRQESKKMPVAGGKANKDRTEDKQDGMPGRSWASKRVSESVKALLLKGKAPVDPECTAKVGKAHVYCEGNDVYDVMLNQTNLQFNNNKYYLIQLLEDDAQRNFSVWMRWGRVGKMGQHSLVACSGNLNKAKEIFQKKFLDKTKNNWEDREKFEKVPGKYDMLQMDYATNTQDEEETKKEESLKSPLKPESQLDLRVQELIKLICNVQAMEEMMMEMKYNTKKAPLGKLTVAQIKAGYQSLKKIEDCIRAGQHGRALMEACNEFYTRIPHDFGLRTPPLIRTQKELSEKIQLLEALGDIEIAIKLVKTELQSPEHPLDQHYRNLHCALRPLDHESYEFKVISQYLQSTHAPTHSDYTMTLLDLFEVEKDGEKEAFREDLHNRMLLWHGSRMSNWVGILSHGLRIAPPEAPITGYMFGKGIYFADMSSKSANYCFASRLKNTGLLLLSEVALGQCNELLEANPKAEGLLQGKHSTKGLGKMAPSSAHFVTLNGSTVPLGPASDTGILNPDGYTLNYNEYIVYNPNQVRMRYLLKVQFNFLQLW

Turning to `CNC(=O)c1ccc(N2CCN(Cc3ccc4c([nH]c(=O)c5ccnn54)c3C)CC2)c(C)n1` [Example 129, 7-((4-(2-methyl-6-(methylcarbamoyl)pyridin-3-yl)piperazin-1-yl)methyl)-6-methylpyrazolo[1,5-a]quinoxalin-4(5H)-one], the IC50 is 1.48 nM in test [1] and 369 nM in test [2].

Consider `CNC(=O)c1ccc(N2CCN(Cc3ccc4c(c3)[nH]c(=O)c3nccn34)CC2)c(C)n1` [Example 25, 7-((4-(2-methyl-6-(methylcarbamoyl)pyridin-3-yl)piperazin-1-yl)methyl)imidazo[1,2-a]quinoxalin-4(5H)-one], for which the IC50 in test [1] was 1.93 nM; in the test with MDA-MB-436 cells, 44.9 nM.

For the compound `CNC(=O)c1ccc(N2CCN(Cc3ccc4c5c(c(=O)[nH]c4c3)CCC5)CC2)c(Cl)n1` [Example 16, 7-((4-(2-chloro-6-(methylcarbamoyl)pyridin-3-yl)piperazin-1-yl)methyl)-1,2,3,5-tetrahydro-4H-cyclopenta[c]quinolin-4-one], the concentration for half-maximal inhibition (IC50) was found to be 1.99 nM in test [1] and 1.71 nM in the test on MDA-MB-436 cells.

With `CNC(=O)c1ccc(N2CCN(Cc3ccc4c(c3)[nH]c(=O)c3ccsc34)CC2)c(C)n1` [Example 85, 7-((4-(2-methyl-6-(methylcarbamoyl)pyridin-3-yl)piperazin-1-yl)methyl)thieno[3,2-c]quinolin-4(5H)-one], the values for the IC50 in test [1] and in test [2] were 1.52 nM and 78 nM, respectively.

As for `CCNC(=O)c1ccc(N2CCN(Cc3ccc4c5c(c(=O)[nH]c4c3)COC5)CC2)c(C)n1` [Example 7, 7-((4-(2-methyl-6-(ethylcarbamoyl)pyridin-3-yl)piperazin-1-yl)methyl)-3,5-dihydrofuro[3,4-c]quinolin-4(1H)-one], the IC50 in test [1] was 1.9 nM; with MDA-MB-436 cells, 4.36 nM.

On to `CNC(=O)c1ccc(N2CCN(Cc3cc(F)c4c(c3)[nH]c(=O)c3c(Cl)cnn34)CC2)c(C)n1` [Example 127, 7-((4-(2-methyl-6-(methylcarbamoyl)pyridin-3-yl)piperazin-1-yl)methyl)-3-chloro-9-fluoropyrazolo[1,5-a]quinoxalin-4(5H)-one], for which the IC50 worked out at 0.85 nM in test [1] and 83 nM in test [2].

On to `CNC(=O)c1ccc(N2CCN(Cc3ccc4c(c3)[nH]c(=O)c3cnn(C)c34)CC2)c(C)n1` [Example 105, 7-((4-(2-methyl-6-(methylcarbamoyl)pyridin-3-yl)piperazin-1-yl)methyl)-1-methyl-1,5-dihydro-4H-pyrazolo[4,3-c]quinolin-4-one], for which the concentration for half-maximal inhibition (IC50) in test [2] was found to be 910 nM.

Turning to `CNC(=O)c1ccc(N2CCN(Cc3cc(F)c4c(c3)[nH]c(=O)n3ccnc43)CC2)c(F)n1` [Example 53, 8-((4-(2-fluoro-6-(methylcarbamoyl)pyridin-3-yl)piperazin-1-yl)methyl)-10-fluoroimidazo[1,2-c]quinazolin-5(6H)-one], the IC50 in test [1] worked out at 2.34 nM; in test [2], 1950 nM.

`CNC(=O)c1ccc(N2CCN(Cc3cc(F)c4c(c3)[nH]c(=O)n3ccnc43)CC2)c(F)n1` [Example 120]: the IC50 in test [2] amounted to 1950 nM.

As for `O=C(NC1CC1)c1ccc(N2CCN(Cc3ccc4c([nH]c(=O)c5ccnn54)c3F)CC2)c(F)n1` [Example 111, 7-((4-(2-fluoro-6-(cyclopropylcarbamoyl)pyridin-3-yl)piperazin-1-yl)methyl)-6-fluoropyrazolo[1,5-a]quinoxalin-4(5H)-one], the figures for the IC50 in test [1] and in test [2] were 1.27 nM and 455 nM, respectively.

On to `CCNC(=O)c1ccc(N2CCN(Cc3ccc4c([nH]c(=O)c5ccnn54)c3F)CC2)c(F)n1` [Example 110, 7-((4-(2-fluoro-6-(ethylcarbamoyl)pyridin-3-yl)piperazin-1-yl)methyl)-6-fluoropyrazolo[1,5-a]quinoxalin-4(5H)-one], for which the IC50 came to 1.95 nM in test [1] and 965 nM in test [2].

As for `CNC(=O)c1ccc(N2CCN(Cc3ccc4c([nH]c(=O)c5cc(Cl)nn54)c3F)CC2)c(F)n1` [Example 112, 7-((4-(2-fluoro-6-(methylcarbamoyl)pyridin-3-yl)piperazin-1-yl)methyl)-6-fluoro-2-chloropyrazolo[1,5-a]quinoxalin-4(5H)-one], the IC50 is 0.57 nM in test [1] and 223 nM in test [2].

As for `CNC(=O)c1ccc(N2CCN(Cc3ccc4c(c3)[nH]c(=O)c3cscc34)CC2)c(C)n1` [Example 83, 7-((4-(2-methyl-6-(methylcarbamoyl)pyridin-3-yl)piperazin-1-yl)methyl)thieno[3,4-c]quinolin-4(5H)-one], the IC50 was determined as 1.08 nM in test [1] and 18.3 nM in test [2].

With `CNC(=O)c1ccc(N2CCN(Cc3ccc4c(c3)[nH]c(=O)c3sccc34)CC2)c(C)n1` [Example 84, 7-((4-(2-methyl-6-(methylcarbamoyl)pyridin-3-yl)piperazin-1-yl)methyl)thieno[2,3-c]quinolin-4(5H)-one], the IC50 in test [1] came to 0.77 nM; in test [2], 10.1 nM.

With `CNC(=O)c1ccc(N2CCN(Cc3cc(F)c4c(c3)[nH]c(=O)c3cscc34)CC2)c(C)n1` [Example 86, 7-((4-(2-methyl-6-(methylcarbamoyl)pyridin-3-yl)piperazin-1-yl)methyl)-9-fluorothieno[3,4-c]quinolin-4(5H)-one], the IC50 was 0.66 nM in test [1] and 13.3 nM in test [2].

The compound `Cc1nc(C(=O)O)ccc1N1CCN(Cc2cc(F)c3c(c2)[nH]c(=O)c2ccnn23)CC1` [Example 116, 7-((4-(2-methyl-6-carboxypyridin-3-yl)piperazin-1-yl)methyl)-9-fluoropyrazolo[1,5-a]quinoxalin-4(5H)-one] showed an IC50 in the test on MDA-MB-436 cells greater than 100 nM.

As for `CNC(=O)c1ccc(N2CCN(Cc3ccc4c(c3)[nH]c(=O)c3c(C)c(C)nn34)CC2)c(F)n1` [Example 125, 7-((4-(2-fluoro-6-(methylcarbamoyl)pyridin-3-yl)piperazin-1-yl)methyl)-2,3-dimethylpyrazolo[1,5-a]quinoxalin-4(5H)-one], the IC50 worked out at 1.05 nM in test [1] and 3.7 nM in test [2].

Turning to `CNC(=O)c1ccc(N2CCN(Cc3ccc4c(c3)[nH]c(=O)c3occc34)CC2)c(C)n1` [Example 104, 7-((4-(2-methyl-6-(methylcarbamoyl)pyridin-3-yl)piperazin-1-yl)methyl)furo[2,3-c]quinolin-4(5H)-one], the IC50 in test [1] was found to be 1.42 nM.

Compound `CNC(=O)c1ccc(N2CCN(Cc3ccc4c(c3)[nH]c(=O)n3ccnc43)CC2)c(C)n1` [Example 31, 8-((4-(2-methyl-6-(methylcarbamoyl)pyridin-3-yl)piperazin-1-yl)methyl)imidazo[1,2-c]quinazolin-5(6H)-one] yielded a concentration for half-maximal inhibition (IC50) in the test on MDA-MB-436 cells of 2.08 nM.

With `CNC(=O)c1ccc(N2CCN(Cc3cc(F)c4c(c3)[nH]c(=O)n3cccc43)CC2)c(C)n1` [Example 131, 8-((4-(2-methyl-6-(methylcarbamoyl)pyridin-3-yl)piperazin-1-yl)methyl)-10-fluoropyrrolo[1,2-c]quinazolin-5(6H)-one], the IC50 in test [1] was found to be 0.78 nM; in test [2], 111 nM.

`[2H]C([2H])([2H])NC(=O)c1ccc(N2CCN(Cc3cc(F)c4c(c3)[nH]c(=O)c3ccnn34)CC2)c(C)n1` [Example 90, 7-((4-(2-methyl-6-((methyl-d3)-carbamoyl)pyridin-3-yl)piperazin-1-yl)methyl)-9-fluoropyrazolo[1,5-a]quinoxalin-4(5H)-one] yielded an IC50 with MDA-MB-436 cells of 2.44 nM.

Consider `CNC(=O)c1ccc(N2CCN(Cc3ccc4c(c3)[nH]c(=O)c3cc(C)cn34)CC2)c(C)n1` [Example 55, 7-((4-(2-methyl-6-(methylcarbamoyl)pyridin-3-yl)piperazin-1-yl)methyl)-2-methylpyrrolo[1,2-a]quinoxalin-4(5H)-one], for which the IC50 in the test on MDA-MB-436 cells was found to be 1.44 nM.

In turn, `CNC(=O)c1ccc(N2CCN(Cc3ccc4c5c(c(=O)[nH]c4c3)COC5)CC2)cn1` [Example 1, 7-((4-(6-(methylcarbamoyl)pyridin-3-yl)piperazin-1-yl)methyl)-3,5-dihydrofuro[3,4-c]quinolin-4(1H)-one] came in with a 50% inhibitory concentration (IC50) in the test with MDA-MB-436 cells of 170 nM.

For `CNC(=O)c1ccc(N2CCN(Cc3cc(F)c4c(c3)[nH]c(=O)c3ccnn34)CC2)cn1` [Example 97, 7-((4-(6-(methylcarbamoyl)pyridin-3-yl)piperazin-1-yl)methyl)-9-fluoropyrazolo[1,5-a]quinoxalin-4(5H)-one], the IC50 in the test with MDA-MB-436 cells is 111 nM.

In turn, `CNC(=O)c1ccc(N2CCN(Cc3ccc4c(c3)[nH]c(=O)c3c(C)cnn34)CC2)c(C)n1` [Example 58, 7-((4-(2-methyl-6-(methylcarbamoyl)pyridin-3-yl)piperazin-1-yl)methyl)-3-methylpyrazolo[1,5-a]quinoxalin-4(5H)-one] yielded an IC50 with MDA-MB-436 cells of 1.87 nM.

Regarding `CCNC(=O)c1ccc(N2CCN(Cc3ccc4c5c(c(=O)[nH]c4c3)COC5)CC2)c(Cl)n1` [Example 6, 7-((4-(2-chloro-6-(ethylcarbamoyl)pyridin-3-yl)piperazin-1-yl)methyl)-3,5-dihydrofuro[3,4-c]quinolin-4(1H)-one], the concentration for half-maximal inhibition (IC50) in test [1] is 1.86 nM; in the test with MDA-MB-436 cells, 17.7 nM.

`CNC(=O)c1ccc(N2CCN(Cc3cc(F)c4c(c3)[nH]c(=O)c3ccnn34)CC2)c(Cl)n1` [Example 45, 7-((4-(2-chloro-6-(methylcarbamoyl)pyridin-3-yl)piperazin-1-yl)methyl)-9-fluoropyrazolo[1,5-a]quinoxalin-4(5H)-one]: in the test with MDA-MB-436 cells, half-maximal inhibition (IC50) was put at 2.24 nM.

As to `O=C(NC1CC1)c1ccc(N2CCN(Cc3ccc4c(c3)[nH]c(=O)c3cccn34)CC2)c(Cl)n1` [Example 61, 7-((4-(2-chloro-6-(cyclopropylcarbamoyl)pyridin-3-yl)piperazin-1-yl)methyl)pyrrolo[1,2-a]quinoxalin-4(5H)-one], in the test on MDA-MB-436 cells, the 50% inhibitory concentration (IC50) was found to be 0.98 nM.

Compound `CNC(=O)c1ccc(N2CCN(Cc3cc(F)c4c(c3)[nH]c(=O)c3cccn34)CC2)c(F)n1` [Example 41, 7-((4-(2-fluoro-6-(methylcarbamoyl)pyridin-3-yl)piperazin-1-yl)methyl)-9-fluoropyrrolo[1,2-a]quinoxalin-4(5H)-one] came in with an IC50 in the test on MDA-MB-436 cells of 1.41 nM.
